Patent US20180125774A1, “Method and Composition for Visible Light Dryable Nail Coatings” (priority 2016, published 2018)

Assays:
Format in all cases: physicochemical
[1] = Solubility of visible light photo-initiator A in solvents; conditions: 25° C.
From the text: The following table 2 lists the solubility of the visible light photo-initiator A of the first preferred embodiment of the visible light dryable nail coating according to this present invention.

[2] = Stability (thermal, light, oxidation in air) as described
From the text: Any one of several photo-initiators is used in the present invention, wherein the photo-initiators can be either component (A): visible light photo-initiator A or component (B): visible light photo-initiator B. Visible light photo-initiator A is, but not limited to, Bis (η5-2,4-cylcopentadian-1-yl)-bis (2,6-di-fluoro-3-(1H-pyrrol-1-yl) phenyl) titanium. […] More specifically, visible light photo-initiator A is particularly suitable for the curing of photopolymers for imaging or information storage applications where extremely high photosensitivity is required.
It is worth to mention that visible light photo-initiator A is sensitive to visible light and any exposure to sunlight must be avoided. And, the visible light photo-initiator A must be stored in low temperature, which is below 25° C., and dry environment. […] Therefore, opened drums are required to close after use to protect the product against light.
Accordingly, visible light photo-initiator B is, but not limited to, 4,4′-Bis (diethylamino) benzophenone. Visible light photo-initiator B is both an aromatic ketone and a tertiary amine, and acts both as a photosensitizer and an amine synergist.

[3] = Solubility of visible light photo-initiator B in solvents; conditions: 20° C.
From the text: The following table 5 lists the solubility of the visible light photo-initiator B of the first preferred embodiment of the visible light dryable nail coating according to this present invention.

[4] = Specification solubility test in acetone
From the text: The following table 4 lists the specification of the visible light photo-initiator B of the first preferred embodiment of the visible light dryable nail coating according to this present invention.

Solubility ([1]; Acetone) [g in 100 ml solvent]	Solubility ([1]; Butyl Acetate) [g in 100 ml solvent]	Solubility ([1]; HDDA) [g in 100 ml solvent]	Solubility ([1]; MEK) [g in 100 ml solvent]	Solubility ([1]; Toluene) [g in 100 ml solvent]	Solubility ([1]; Water) [g in 100 ml solvent]	Thermal stability [2]	Solubility ([3]; Acetone) [% w/w]	Solubility ([3]; Butyl Acetate) [% w/w]	Solubility ([3]; Ethyl acetate) [% w/w]	Solubility ([3]; Methanol) [% w/w]	Solubility ([3]; Toluene) [% w/w]	Solubility ([3]; Water) [% w/w]	Solubility (3 g/10 mL Acetone) [4]	Structure (SMILES)	Light sensitivity ([2]; dissolved in a solvent or a formulation, daylight and standard fluorescence bulbs)	Resistance to oxidation ([2]; exposure in air, versus most commercially available EMK)
30	2	10	30	10	<0.5	good thermal stability	–	–	–	–	–	–	–	Fc1ccc(-n2cccc2)c(F)[c]1[Ti+2][c]1c(F)ccc(-n2cccc2)c1F.c1cc[cH-]c1.c1cc[cH-]c1 [visible light photo-initiator A, Bis (η5-2,4-cylcopentadian-1-yl)-bis (2,6-di-fluoro-3-(1H-pyrrol-1-yl)phenyl) titanium]	extremely sensitive to daylight and light from standard fluorescence bulbs	–
–	–	–	–	–	–	–	30	30	24	7.0	25	<0.01	Clear solution	CCN(CC)c1ccc(C(=O)c2ccc(N(CC)CC)cc2)cc1 [visible light photo-initiator B, 4,4′-Bis (diethylamino) benzophenone]	–	more resistant to oxidation by exposure in air than most commercially available EMK
